Counter-ions that a name gives are not always drawn.
Experiments:
[1] = Dissolution studies using USP Apparatus II, single vs multiple doses; type: physicochemical; conditions: Type A + Type C granules in capsule, 250 ml medium pH 1.6, 10, 30, 60, 120 minutes
[2] = Binding studies using USP Apparatus I (naloxone to ion exchange polymer); type: physicochemical; conditions: 1:1 molar naloxone:Amberlite IRP64, 500 mL 0.1 N HCl / 5 mM phosphate buffer pH 6.8
Procedure: The following experiment was done. • 1. Based on the 1:1 molar ratio of naloxone:Amberlite™ IRP64, take the required quantity of naloxone and Amberlite™ IRP64 blend in a capsule and add it to 500 mL of the medium (0.1 N HCl/5 mM Phosphate buffer, pH 6.8). • 2. Withdraw dissolution samples at 10, 30 and 60 mins. • 3. Centrifuge the samples at 3000 rpm for 10 mins and filter through fritted filter ([…]) to get the supernatant for analysis. The results are illustrated in FIG. 9.

| SMILES | percentage of drug released, multiple doses versus single dose [1] | percentage of naloxone hydrochloride bonded to ion exchange polymer, multiple doses versus single dose [2] |
| --- | --- | --- |
| COc1ccc2c3c1O[C@H]1C(=O)CC[C@@]4(O)[C@@H](C2)N(C)CC[C@]314.Cl [oxycodone hydrochloride] | drastically reduced |  |
| C=CCN1CC[C@]23c4c5ccc(O)c4O[C@H]2C(=O)CC[C@@]3(O)[C@H]1C5 [naloxone hydrochloride] |  | drastically increases |
